Reference: PubChem BioAssay (NCI)
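Five compound concentrations were applied to cells in 96-well plates for 48 hours; endpoints were derived by simple linear interpolation of the resulting dose-response curve. Definition used: TGI = concentration required for complete inhibition of growth.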

Key:
Test in all cases: NCI tumour cell line growth inhibition, 48 h
[1] = tested on: MALME-3M melanoma
[2] = tested on: NCI-H460 lung
[3] = tested on: UACC-257 melanoma
[4] = tested on: A549 NSCLC
[5] = tested on: CCRF-CEM leukemia
[6] = tested on: SK-MEL-2 melanoma
[7] = tested on: LOX IMVI melanoma
[8] = tested on: SK-MEL-28 melanoma
[9] = tested on: HOP-92 NSCLC
[10] = tested on: OVCAR-8 ovarian
[11] = tested on: SF-295 CNS
[12] = tested on: MDA-MB-231 breast
[13] = tested on: U251 CNS
[14] = tested on: HCT-116 colon
[15] = tested on: NCI-H226 lung
[16] = tested on: BT-549 breast
[17] = tested on: K-562 leukemia
[18] = tested on: A498 renal
[19] = tested on: SW-620 colon
[20] = tested on: OVCAR-5 ovarian
[21] = tested on: HT29 colon
[22] = tested on: UO-31 renal
[23] = tested on: RPMI-8226 leukemia
[24] = tested on: SN12C renal
[25] = tested on: NCI-H23 lung
[26] = tested on: MOLT-4 leukemia
[27] = tested on: COLO 205 colon
[28] = tested on: CAKI-1 renal
[29] = tested on: SK-MEL-5 melanoma
[30] = tested on: SNB-75 CNS
[31] = tested on: KM12 colon
[32] = tested on: TK-10 renal
[33] = tested on: T-47D breast
[34] = tested on: PC-3 prostate
[35] = tested on: MDA-MB-435
[36] = tested on: HOP-62 NSCLC
[37] = tested on: DU-145 prostate
[38] = tested on: OVCAR-3 ovarian
[39] = tested on: SF-268 CNS
[40] = tested on: NCI-H522 lung
[41] = tested on: SF-539 CNS
[42] = tested on: EKVX NSCLC
[43] = tested on: OVCAR-4 ovarian
[44] = tested on: SNB-19 CNS
[45] = tested on: HCT-15 colon
[46] = tested on: M14 melanoma
[47] = tested on: HL-60(TB) leukemia
[48] = tested on: 786-0 renal
[49] = tested on: MDA-N
[50] = tested on: SK-OV-3 ovarian
[51] = tested on: UACC-62 melanoma
[52] = tested on: ACHN renal
[53] = tested on: NCI/ADR-RES ovarian
[54] = tested on: IGROV1 ovarian
[55] = tested on: HCC-2998 colon
[56] = tested on: RXF 393 renal
[57] = tested on: MCF7 breast

Measured: TGI

Cc1cc(-c2c(Br)cc(C(=O)O)n2C)on1
> 100 µM: [1] | [2] | [3] | [4] | [5] | [6] | [7] | [8] | [9] | [10] | [11] | [12] | [13] | [14] | [15] | [16] | [17] | [18] | [19] | [20] | [21] | [22] | [23] | [24] | [25] | [26] | [27] | [28] | [29] | [30] | [31] | [32] | [33] | [34] | [35] | [36] | [37] | [38] | [39] | [40] | [41] | [42] | [43] | [44] | [45] | [46] | [47] | [48] | [49] | [50] | [51] | [52] | [53]

CO/C(N)=C(\C#N)N=Cc1cccnc1
> 100 µM: [1] | [3] | [4] | [5] | [6] | [7] | [8] | [9] | [10] | [11] | [12] | [13] | [14] | [15] | [16] | [17] | [18] | [19] | [20] | [21] | [23] | [24] | [25] | [54] | [26] | [27] | [28] | [29] | [30] | [31] | [32] | [33] | [55] | [34] | [35] | [56] | [36] | [37] | [38] | [39] | [41] | [42] | [43] | [45] | [46] | [47] | [48] | [49] | [50] | [51] | [57] | [53]
